Source: patent US8785653B2, “(3-aryl-1H-1,2,4-triazol-5-yl)-linked heterocycle derivatives” (H. Lundbeck A/S, priority 2009, dated 2014)

Target: T1, PDE10A enzyme (Homo sapiens, UniProt Q9Y233)
T1 construct: made in house; host or cells: E. coli BL21(DE3)
Test: PDE10A inhibition assay
Assay type: biochemical
Conditions: 3H-labelled cAMP substrate 5 nM, SPA beads, one hr at room temperature
Method: Active PDE10A enzyme is prepared in a number of ways for use in PDE assays (Loughney, K. et al. Gene 1999, 234, 109-117; Fujishige, K. et al. Eur J Biochem. 1999, 266, 1118-1127 and Soderling, S. et al. Proc. Natl. Acad. Sci. 1999, 96, 7071-7076). PDE10A can be expressed as full-length proteins or as truncated proteins, as long as they express the catalytic domain. PDE10A can be prepared in different cell types, for example insect cells or E. coli. An example of a method to obtain catalytically active PDE10A is as follows: The catalytic domain of human PDE10A (amino acids 440-779 from the sequence with accession number NP 006652) is amplified from total human brain total RNA by standard RT-PCR and is cloned into the BamH1 and Xho1 sites of the pET28a vector (Novagen). Expression in coil is performed according to standard protocols. Briefly, the expression plasmids are transformed into the BL21(DE3) E. coli strain, and 50 mL cultures inoculated with the cells allowed to grow to an OD600 of 0.4-0.6 before protein expression is induced with 0.5mM IPTG. Following induction, the cells are incubated overnight at room temperature, after which the cells are collected by centrifugation. Cells expressing PDE10A are resuspended in 12 mL (50 mM TRIS-HCl-pH8.0, 1 mM MgCl2 and protease inhibitors). The cells are lysed by sonication, and after all cells are lysed, TritonX100 is added according to Novagen protocols.
A PDE10A assay may for example, be performed as follows: The assay is performed in 60 uL samples containing a fixed amount of the relevant PDE enzyme (sufficient to convert 20-25% of the cyclic nucleotide substrate), a buffer (50 mM HEPES7.6; 10 mM MgCl2; 0.02% Tween20), 0.1 mg/mI BSA, 225 pCi of ^3H-labelled cyclic nucleotide substrate, tritium labeled cAMP to a final concentration of 5 nM and varying amounts of inhibitors. Reactions are initiated by addition of the cyclic nucleotide substrate, and reactions are allowed to proceed for one hr at room temperature before being terminated through mixing with 15 uL 8 mg/mL yttrium silicate SPA beads (Amersham). The beads are allowed to settle for one hr in the dark before the plates are counted in a Wallac 1450 Microbeta counter. The measured signal can be converted to activity relative to an uninhibited control (100%) and IC50 values can be calculated using the XIfit extension to EXCEL.

T1 sequence (Q9Y233 716-1055): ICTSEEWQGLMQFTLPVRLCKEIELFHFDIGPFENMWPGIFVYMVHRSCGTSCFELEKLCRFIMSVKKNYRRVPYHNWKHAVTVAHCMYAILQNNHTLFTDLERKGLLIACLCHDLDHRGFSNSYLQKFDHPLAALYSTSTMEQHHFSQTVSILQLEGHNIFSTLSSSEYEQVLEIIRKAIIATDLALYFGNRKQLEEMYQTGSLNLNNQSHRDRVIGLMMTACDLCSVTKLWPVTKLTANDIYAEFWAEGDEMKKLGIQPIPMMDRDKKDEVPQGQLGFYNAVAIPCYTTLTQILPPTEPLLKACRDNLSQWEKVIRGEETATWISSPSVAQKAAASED

| SMILES | IC50 [nM] |
| --- | --- |
| Cc1ccc(C)n2nc(CCc3nc(-c4ccccc4)nn3C)nc12 [5,8-Dimethyl-2-[2-(2-methyl-5-phenyl-2H-[1,2,4]triazol-3-yl)-ethyl]-[1,2,4]triazolo[1,5-a]pyridine] | 6.7 |
| Cc1cnc(C)n2nc(CCc3nc(-c4ccccc4)nn3C)nc12 [5,8-Dimethyl-2-[2-(2-methyl-5-phenyl-2H-[1,2,4]triazol-3-yl)-ethyl]-[1,2,4]triazolo[1,5-c]pyrimidine] | 36 |
| Cc1ncc(C)n2nc(CCc3nc(-c4ccccn4)nn3C)nc12 [5,8-Dimethyl-2-[2-(2-methyl-5-pyridin-2-yl-2H-[1,2,4]triazol-3-yl)-ethyl]-[1,2,4]triazolo[1,5-a]pyrazine] | 39 |
| Cc1ncc(C)n2nc(CCc3nc(-c4cccnc4)nn3C)nc12 [5,8-Dimethyl-2-[2-(2-methyl-5-pyridin-3-yl-2H-[1,2,4]triazol-3-yl)-ethyl]-[1,2,4]triazolo[1,5-a]pyrazine] | 110 |
| Cc1ncc(C)n2nc(CCc3nc(-c4ncccn4)nn3C)nc12 [5,8-Dimethyl-2-[2-(2-methyl-5-pyrimidin-2-yl-2H-[1,2,4]triazol-3-yl)-ethyl]-[1,2,4]triazolo[1,5-a]pyrazine] | 53 |
| Cc1ncc(C)n2nc(CCc3nc(-c4nccs4)nn3C)nc12 [5,8-Dimethyl-2-[2-(2-methyl-5-thiazol-2-yl-2H-[1,2,4]triazol-3-yl)-ethyl]-[1,2,4]triazolo[1,5-a]pyrazine] | 36 |
| Cc1ncc(C)n2nc(CCc3nc(-c4cscn4)nn3C)nc12 [5,8-Dimethyl-2-[2-(2-methyl-5-thiazol-4-yl-2H-[1,2,4]triazol-3-yl)-ethyl-]-[1,2,4]triazolo[1,5-a]pyrazine] | 25 |
| Cc1ncc(C)n2nc(CCc3nc(-c4cncs4)nn3C)nc12 [5,8-Dimethyl-2-[2-(2-methyl-5-thiazol-5-yl-2H-[1,2,4]triazol-3-yl)-ethyl]-[1,2,4]triazolo[1,5-a]pyrazine] | 26 |
| Cc1ncc(C)n2nc(CCc3nc(-c4cccs4)nn3C)nc12 [5,8-Dimethyl-2-[2-(2-methyl-5-thiophen-2-yl-2H-[1,2,4]triazol-3-yl)-etnyl]-[1,2,4]triazolo[1,5-a]pyrazine] | 5.6 |
| Cc1ncc(C)n2nc(CCc3nc(-c4ccsc4)nn3C)nc12 [5,8-Dimethyl-2-[2-(2-methyl-5-thiophen-3-yl-2H-[1,2,4]triazol-3-yl)-ethyl]-[1,2,4]triazolo[1,5-a]pyrazine] | 5.3 |
| Cc1csc(-c2nc(CCc3nc4c(C)ncc(C)n4n3)n(C)n2)n1 [5,8-Dimethyl-2-{2-[2-methyl-5-(4-methyl-thiazol-2-yl)-2H-[1,2,4]triazol-3-yl]-ethyl}-[1,2,4]triazolo[1,5-a]pyrazine] | 76 |
| Cc1cnc(-c2nc(CCc3nc4c(C)ncc(C)n4n3)n(C)n2)s1 [5,8-Dimethyl-2-{2-[2-methyl-5-(5-methyl-thiazol-2-yl)-2H-[1,2,4]triazol-3-yl]-ethyl}-[,2,4]triazolo[1,5-a]pyrazine] | 120 |
| Cc1cccc2nc(CSc3nc(-c4ccccc4)n[nH]3)nn12 [5-Methyl-2-(5-phenyl-2H-[1,2,4]triazol-3-ylsulfanylmethyl)-[1,2,4]triazolo[1,5-a]pyridine] | 200 |
| Cc1cccc2nc(CCc3nc(-c4ccccc4)nn3C)nn12 [5-Methyl-2-[2-(2-methyl-5-phenyl-2H-[1,2,4]triazol-3-yl)-ethyl]-[1,2,4]triazolo[1,5-a]pyridine] | 220 |
| CCc1ccc(C)n2nc(CCc3nc(-c4ccccc4)nn3C(C)C)nc12 [8-Ethyl-2-[2-(2-isopropyl-5-phenyl-2H-[1,2,4]triazol-3-yl)-ethyl]-5-methyl-[1,2,4]triazolo[1,5-a]pyridine] | 40 |
| CCc1ccc(C)n2nc(CCc3nc(-c4ccccc4)nn3C)nc12 [8-Ethyl-5-methyl-2-[2-(2-methyl-5-phenyl-2H-[1,2,4]triazol-3-yl)-ethyl]-[1,2,4]triazolo[1,5-a]pyridine] | 7.5 |
| CCCn1nc(-c2ccccc2)nc1CCc1nc2c(CC)ccc(C)n2n1 [8-Ethyl-5-methyl-2-[2-(5-phenyl-2-propyl-2H-[1,2,4]triazol-3-yl)-ethyl]-[1,2,4]triazolo[1,5-a]pyridine] | 10 |

Continued, values first:

| IC50 [nM] | SMILES |
| --- | --- |
| 560 | COc1cccn2nc(CCc3nc(-c4ccccc4)nn3C)nc12 [8-Methoxy-2-[2-(2-methyl-5-phenyl-2H-[1,2,4]triazol-3-yl)-ethyl]-[1,2,4]triazolo[1,5-a]pyridine] |
| 62 | COCCn1nc(-c2ccccc2)nc1CCc1nc2c(OC)ccc(C)n2n1 [8-Methoxy-2-{2-[2-(2-methoxy-ethyl)-5-phenyl-2H-[1,2,4]triazol-3-yl]-ethyl}-5-methyl-[1,2,4]triazolo[1,5-a]pyridine] |
| 52 | COc1ccc(C)n2nc(CSc3nc(-c4ccccc4)n[nH]3)nc12 [8-Methoxy-5-methyl-2-(5-phenyl-2H-[1,2,4]triazol-3-ylsulfanylmethyl)-[1,2,4]triazolo[1,5-a]pyridine] |
| 25 | COc1ccc(C)n2nc(CCc3nc(-c4ccccc4)nn3C)nc12 [8-Methoxy-5-methyl-2-[2-(2-methyl-5-phenyl-2H-[1,2,4]triazol-3-yl)-ethyl]-[1,2,4]triazolo[1,5-a]pyridine] |
| 37 | CCCn1nc(-c2ccccc2)nc1CCc1nc2c(OC)ccc(C)n2n1 [8-Methoxy-5-methyl-2-[2-(5-phenyl-2-propyl-2H-[1,2,4]triazol-3-yl)-ethyl]-[1,2,4]triazolo[1,5-a]pyridine] |
| 180 | COc1ccc(C)n2nc(CCc3nc(-c4ccccc4)nn3CC(F)(F)F)nc12 [8-Methoxy-5-methyl-2-{2-[5-phenyl-2-(2,2,2-trifluoro-ethyl)-2H-[1,2,4]triazol-3-yl]-ethyl}-[1,2,4]triazolo[1,5-a]pyridine] |
| 170 | Cc1cccn2nc(CCc3nc(-c4ccccc4)nn3C)nc12 [8-Methyl-2-[2-(2-methyl-5-phenyl-2H-[1,2,4]triazol-3-yl)-ethyl]-[1,2,4]triazolo[1,5-a]pyridine] |
| 81 | CCOC(=O)Cn1nc(-c2ccccc2)nc1CCc1nc2c(OC)ccc(C)n2n1 [{5-[2-(8-Methoxy-5-methyl-[1,2,4]triazolo[1,5-a]pyridin-2-yl)-ethyl]-3-phenyl-[1,2,4]triazol-1-yl}-acetic acid ethyl ester] |

Tested on: not given
Test: not given
Conditions: not given

| melting point [°C] | SMILES |
| --- | --- |
| 141 to 143 | CCCn1nc(-c2ccccc2)nc1CCc1nc2c(CC)ccc(C)n2n1 [8-Ethyl-5-methyl-2-[2-(5-phenyl-2-propyl-2H-[1,2,4]triazol-3-yl)-ethyl]-[1,2,4]triazolo[1,5-a]pyridine] |

Tested on: rats
Test: not given
Conditions: cited from earlier work

| SMILES | reduction of amphetamine induced hyperactivity |
| --- | --- |
| COc1ccc(Cc2nccc3cc(OC)c(OC)cc23)cc1OC [Papaverine, papaverine] | insignificant |

Tested on: rats
Test: not given
Conditions: papaverine alone; cited from earlier work

| SMILES | catalepsy on its own |
| --- | --- |
| COc1ccc(Cc2nccc3cc(OC)c(OC)cc23)cc1OC [Papaverine, papaverine] | did not cause catalepsy |

Same assay, conditions: together with haloperidol; cited from earlier work

| SMILES | cataleptic effect of the D2 receptor antagonist haloperidol |
| --- | --- |
| COc1ccc(Cc2nccc3cc(OC)c(OC)cc23)cc1OC [Papaverine, papaverine] | potentiated |

Tested on: rats
Test: not given
Conditions: cited from earlier work
Remark: another data set of the same source

| SMILES | hyperactivity induced by PCP |
| --- | --- |
| COc1ccc(Cc2nccc3cc(OC)c(OC)cc23)cc1OC [Papaverine, papaverine] | reduced hyperactivity |
